Reference: article PMC8338929, “Acetylation turns leucine into a drug by membrane transporter switching” (Scientific Reports, 2021)
“Also recorded” adds a separate entry of the source.

Key:
human PepT1 (SLC15A1) [1] = target: T1, human PepT1 (SLC15A1) (Homo sapiens, UniProt P46059); assay: Inhibition of PepT1 uptake of probe substrate Gly-Sar in MDCK-II cells; assay type: cell-based; conditions: probe Gly-Sar 50 µM; positive control losartan 200 µM; pH 5.5
T1 construct: host or cells: MDCK-II
T1 sequence (P46059 1-708): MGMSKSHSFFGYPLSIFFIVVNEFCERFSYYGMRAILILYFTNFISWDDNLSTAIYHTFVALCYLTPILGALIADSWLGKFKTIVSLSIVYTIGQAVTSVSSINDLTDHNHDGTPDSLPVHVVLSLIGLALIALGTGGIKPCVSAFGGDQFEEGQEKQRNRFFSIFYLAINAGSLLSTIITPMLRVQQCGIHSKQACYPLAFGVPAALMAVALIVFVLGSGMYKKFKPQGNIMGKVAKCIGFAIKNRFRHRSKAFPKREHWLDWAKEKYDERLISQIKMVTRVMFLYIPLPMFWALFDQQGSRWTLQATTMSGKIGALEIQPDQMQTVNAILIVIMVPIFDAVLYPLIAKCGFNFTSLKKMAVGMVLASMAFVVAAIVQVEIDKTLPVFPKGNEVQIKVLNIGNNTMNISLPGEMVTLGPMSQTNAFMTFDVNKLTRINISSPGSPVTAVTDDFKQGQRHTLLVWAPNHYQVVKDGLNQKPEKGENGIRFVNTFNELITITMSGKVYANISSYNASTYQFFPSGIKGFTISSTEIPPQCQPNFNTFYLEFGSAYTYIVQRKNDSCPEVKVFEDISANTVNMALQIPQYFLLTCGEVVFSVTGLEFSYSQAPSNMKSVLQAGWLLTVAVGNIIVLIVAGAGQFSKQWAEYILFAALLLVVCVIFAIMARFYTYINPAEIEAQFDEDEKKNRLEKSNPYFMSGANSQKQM
Procedure: (§1) Transport studies with human PepT1 (SLC15A1), LAT1 (SLC7A5) and MCT1 (SLC16A1) were conducted in MDCK-II cells expressing the human transporter or control cells expressing a vector with Green Fluorescence Protein. Cells were transfected using a proprietary, transient transfection system (OPTI-EXPRESSION Technology, BioIVT). The results from the control cells were used to correct for substrate permeation by routes other than the transporter being investigated in the study. […] Specifically, Net Transporter Mediated Substrate Uptake (pmol/min/cm^2) = (Cellular accumulation in the presence of the transporter) − (Mean cellular accumulation in the absence of the transporter). MDCK-II cells were maintained in DMEM with low glucose and 10% FBS. Cells were used at passages up to 40 were seeded at 60,000 ± 10,000 cells/well on 96-well plates approximately 24 h before transfection, and transport assays were performed approximately 48 h after transfection. […]
(§2) Transport studies with PepT1 were conducted in 96-well cell culture plate with wells containing a monolayer of MDCK-II cells grown on a permeable support and a corresponding 96-well receiver tray. […] Then a 30-µL sample was taken and mixed with 200 µL of scintillation fluid and scintillation counted (1450 Microbeta, Perkin-Elmer). […]

human PepT1 (SLC15A1) [2] = target: T1, human PepT1 (SLC15A1); assay: PepT1-mediated cellular uptake in transfected MDCK-II cells; assay type: cell-based; conditions: pH 5.5, 37 °C
Procedure: as §1, §2

## CC(=O)N[C@@H](CC(C)C)C(=O)O [N-acetyl-L-leucine]
Human PepT1 (SLC15A1) [1]
  IC50: 740 µM
Human PepT1 (SLC15A1) [2]
  substrate of PepT1 (uptake): not transported; also recorded: not a substrate
